Here are results for one compound from patent US20070135383A1, “Phospholipase inhibitors, including multi-valent phospholipase inhibitors, and use thereof, including as lumen-localized phospholipase inhibitors” (priority 2005, published 2007).

Experiment [1] has as its target T1, Porcine PLA2 IB (Sus scrofa, UniProt P00592).
T1 construct: purchased
Put plainly: Continuous fluorimetric PLA2 assay, PPyrPG vesicles (Example 1B-1). It is filed as biochemical. The note with it: restated in Example 10, refers to Example 1B-1; read-out: IC-50 value. The source says:
A continuous fluorimetric assay for PLA2 activity described in the literature was used to determine IC (Leslie, C C and Gelb, M H (2004) Methods in Molecular Biology “Assaying phospholipase A2 activity”, 284: 229-242, Singer, A G, et al. (2002) Journal of Biological Chemistry “Interfacial kinetic and binding properties of the complete set of human and mouse groups I, II, V, X, and XII secreted phospholipases A2”, 277: 48535-48549, Bezzine, S, et al. (2000) Journal of Biological Chemistry “Exogenously added human group X secreted phospholipase A(2) but not the group IB, IIA, and V enzymes efficiently release arachidonic acid from adherent mammalian cells”, 275: 3179-3191) and references therein.
Generally, this assay used a phosphatidylglycerol (or phosphatidylmethanol) substrate with a pyrene fluorophore on the terminal end of the sn-2 fatty acyl chain. […] The effect of a given inhibitor and inhibitor concentration on any given phospholipase can be determined. […]
In this example, the procedure was performed as follows: • 1. […] The fluorescence was read using an excitation of 342 nm and an emission of 395 nm.
In this example, the IC50 was calculated using the BioDataFit 1.02 (Four Parameter Model) software package. […]

Experiment [2] concerns the target human PLA2 IB enzyme (Homo sapiens, UniProt P04054). To be noted: versus the human PLA2 IB enzyme; cited from earlier work.
Experiment [3] addresses mouse PLA2 IB enzyme (Mus musculus, UniProt Q9Z0Y2). The note with it: versus the mouse PLA2 IB enzyme; cited from earlier work.

T1 sequence (P00592 23-146): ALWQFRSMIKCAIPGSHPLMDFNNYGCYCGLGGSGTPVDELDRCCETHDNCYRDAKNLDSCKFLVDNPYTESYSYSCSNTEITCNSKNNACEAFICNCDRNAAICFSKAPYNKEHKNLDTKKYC
Sequence of mouse PLA2 IB enzyme (Q9Z0Y2 23-146): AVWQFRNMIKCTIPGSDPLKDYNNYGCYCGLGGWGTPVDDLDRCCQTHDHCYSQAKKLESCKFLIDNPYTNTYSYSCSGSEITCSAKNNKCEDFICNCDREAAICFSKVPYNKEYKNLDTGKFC
Sequence of human PLA2 IB enzyme (P04054 23-148): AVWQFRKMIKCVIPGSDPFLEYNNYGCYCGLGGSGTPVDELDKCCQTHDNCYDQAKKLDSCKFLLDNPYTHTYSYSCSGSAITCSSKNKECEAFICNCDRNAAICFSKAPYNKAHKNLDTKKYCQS

`Cc1c(C(=O)C(N)=O)c2c(OCC(=O)O)cccc2n1Cc1ccccc1-c1ccccc1` [ILY-4001, 2-(3-(2-amino-2-oxoacetyl)-1-(biphenyl-2-ylmethyl)-2-methyl-1H-indol-4-yloxy)acetic acid]: the figures for the IC50 in experiment [1], in experiment [2] and in experiment [3] were about 62 nM, about 200 nM and 150 nM, respectively.
